This note sets out measurements from patent US20110190398A1, “USE OF IMMUNOS[…] IN A NEW INDICATION” (NOVARTIS AG, priority 2008, published 2011).

Counter-ions that a name gives are not always drawn.

Type in all cases: in vivo, Lewis rats
The subject of assay [1] is Experimental Autoimmune Neuritis. The assay can be described thus: Immunohistochemistry of inflammatory cell infiltration in EAN sciatic nerves. The conditions noted are these: EAN rats, Day 16, 1 mg/kg, sciatic nerve cross-sections, n=5.
Assay [2] shares this test system. The assay can be described thus: EAN clinical score, suppressive treatment. The conditions noted are these: EAN rats, 1 mg/kg intragastrically once daily from immunization until Day 22; scale 0-10; control maximal 4.80±0.51 at Day 13. How it is done:
(§1) Male Lewis rats (8-10 weeks, 180-200 g, Elevage-Janvier, France) were housed under a 12 h light-12 h dark cycle and with free access to food and water. All animal procedures were in accordance with a protocol approved by the local Administration District Official Committee. All efforts were made to minimize the number of animals and their suffering.
(§2) For EAN induction, rats were immunized by subcutaneous injection into both hind footpads with 100 μL of an inoculum containing 100 μg of synthetic neuritogenic P2 57-81 peptide (GeneScript Corporation, Scotch Plains, N.J., USA). The peptide was dissolved in phosphate buffered saline (PBS) (2 mg/mL) and then emulsified with an equal volume of complete Freund's adjuvant (CFA) containing 2 mg/mL mycobacterium tuberculosis to get a final concentration of 1 mg/mL.
EAN clinical scores were evaluated every day as follows: 0=normal, 1=reduced tonus of tail, 2=limp tail, impaired righting, 3=absent righting, 4=gait ataxia, 5=mild paresis of the hind limbs, 6=moderate paraparesis, 7=severe paraparesis or paraplegia of the hind limbs, 8=tetraparesis, 9=moribund, and 10=death (Zhang et al., 2009A).
Compound A was tested at a concentration of 1 mg/kg (suspended in a water vehicle). The compound A suspension was intragastrically administrated immediately after induction and then once daily until Day 22 (5 rats per group). […]

Assay [3] shares this test system. The assay can be described thus: Luxol Fast Blue staining, semiquantitative histological score of EAN sciatic nerves. The conditions noted are these: EAN rats, Day 16, 1 mg/kg in water vehicle, LFB staining of sciatic nerves, scale 0-3. The method, then:
as §1
For EAN induction, rats were immunized by subcutaneous injection into both hind footpads with 100 μL of an inoculum containing 100 μg of synthetic neuritogenic P2 57-81 peptide (GeneScript Corporation, Scotch Plains, N.J., USA). […]
The routine Luxol Fast Blue (LFB) staining was applied to show myelin. […] Briefly, four cross-sections from root and middle level of both sides of EAN rats were analyzed. All perivascular areas present in cross-sections were evaluated by two observers unaware of the treatment, and the degree of pathological alteration was graded semiquantitatively on the following scale: 0=normal perivascular area; 1=mild cellular infiltrate adjacent to the vessel; 2=cellular infiltration plus demyelination in immediate proximity to the vessel; and 3=cellular infiltration and demyelination throughout the section. […]

Assay [4] has the same test system. The assay can be described thus: Body weight course in EAN rats. The conditions noted are these: 1 mg/kg once daily, control showed significant weight loss Day 10 to 18. The method, then:
as §1, §2
Compound A was tested at a concentration of 1 mg/kg (suspended in a water vehicle). The compound A suspension was intragastrically administrated immediately after induction and then once daily until Day 22 (5 rats per group). For control EAN rats, the same volume of 1% CMC in water was given.

On to `CCC(N)(CO)CCc1ccc(Sc2cccc(OCc3ccccc3)c2)cc1Cl` (stereo not drawn) [Compound A, 2-amino-4-[4-(3-benzyloxyphenylthio)-2-chlorophenyl]-2-ethylbutane-1-ol hydrochloride], for which, in assay [1], the “Area of immunoreactivity/area of sciatic nerves (%) for B cells (OX22+)” value was less than 0.01%, the “Area of immunoreactivity/area of sciatic nerves (%) for Macrophages (ED1+)” value is listed as less than 0.05% and the “Area of immunoreactivity/area of sciatic nerves (%) for T cells (W3/13+)” value is less than 0.01%. In assay [2], this compound showed a mean neurological score of less than 0.1. For the same compound, the “Mean Histological Score” value in assay [3] is 0.10. Moreover, the weight loss result in assay [4] is on record as “a reduced level of weight loss was observed from Day 13 to 15”.
